Reference: PubChem BioAssay AID256 (DTP/NCI, 2004)
Several values for one entry are separate records, joined by “and”; a condition that tells them apart may be missing. Equal entries are not always repeated. Toxic doses and inconclusive results are not listed. Rule for the calls: active = survival T/C of 150% or more; inactive = T/C below 125% in these data.

Tested on: CD2F1 mice, L1210 leukemia ip, survival T/C
Test: NCI In Vivo Anticancer Drug Screen. Data for tumor model L1210 Leukemia (intraperitoneal) in CD2F1 (CDF1) mice
Conditions: higher = longer survival
In short: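 Read-out first: treated-group measurement over vehicle-control measurement, expressed as a ratio. Animals bore a transplanted tumor line and were dosed with compound or vehicle.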

Measured: T/C

COc1cccc2c1C(=O)c1c(O)c3c(c(O)c1C2=O)C[C@@](O)(C(=O)CO)C[C@@H]3OC1CC(N)C(O)C(C)O1 (stereo partly specified)
113 % of control and 216 % of control: endpoint: median survival time, dose: 9.6 mg/kg/injection, schedule: Q01DX001 (ip), vehicle: saline
inactive: endpoint: mean survival time, dose: 0.06 mg/kg/injection, schedule: Q01DX009 (ip), vehicle: saline 105 % of control | endpoint: mean survival time, dose: 0.12 mg/kg/injection, schedule: Q01DX009 (ip), vehicle: saline 114 % of control | endpoint: mean survival time, dose: 0.2 mg/kg/injection, schedule: Q01DX009 (ip), vehicle: water 113 % of control and 114 % of control | endpoint: mean survival time, dose: 0.25 mg/kg/injection, schedule: Q01DX005 (ip), vehicle: water 121 % of control | endpoint: mean survival time, dose: 0.38 mg/kg/injection, schedule: Q01DX009 (ip), vehicle: saline 121 % of control | endpoint: mean survival time, dose: 0.39 mg/kg/injection, schedule: Q01DX009 (ip), vehicle: water 117 % of control | endpoint: mean survival time, dose: 0.43 mg/kg/injection, schedule: Q01DX009 (ip), vehicle: saline 120 % of control | endpoint: mean survival time, dose: 0.62 mg/kg/injection, schedule: Q04DX003 (ip), vehicle: water 120 % of control | endpoint: mean survival time, dose: 0.63 mg/kg/injection, schedule: Q04DX003 (ip), vehicle: water 123 % of control | endpoint: mean survival time, dose: 1.0 mg/kg/injection, schedule: Q01DX001 (ip), vehicle: water 101 % of control | endpoint: mean survival time, dose: 1.08 mg/kg/injection, schedule: Q04DX003 (ip), vehicle: saline 124 % of control | endpoint: mean survival time, dose: 1.7 mg/kg/injection, schedule: Q01DX001 (ip), vehicle: water 99 % of control | endpoint: mean survival time, dose: 1.8 mg/kg/injection, schedule: Q04DX003 (ip), vehicle: saline 121 % of control | endpoint: mean survival time, dose: 2.0 mg/kg/injection, schedule: Q01DX001 (ip), vehicle: saline 102 % of control | endpoint: mean survival time, dose: 2.9 mg/kg/injection, schedule: Q01DX001 (ip), vehicle: water 98 % of control | endpoint: mean survival time, dose: 3.0 mg/kg/injection, schedule: Q01DX009 (ip), vehicle: saline 114 % of control and 101 % of control | endpoint: mean survival time, dose: 3.13 mg/kg/injection, schedule: Q01DX009 (ip), vehicle: water 101 % of control | endpoint: mean survival time, dose: 4.67 mg/kg/injection, schedule: Q01DX009 (ip), vehicle: water 100 % of control | endpoint: mean survival time, dose: 4.8 mg/kg/injection, schedule: Q01DX001 (ip), vehicle: water 102 % of control | endpoint: mean survival time, dose: 8.0 mg/kg/injection, schedule: Q01DX001 (ip), vehicle: water 98 % of control | endpoint: mean survival time, dose: 8.0 mg/kg/injection, schedule: Q04DX003 (ip), vehicle: water 116 % of control | endpoint: mean survival time, dose: 10.0 mg/kg/injection, schedule: Q04DX003 (ip), vehicle: water 89 % of control | endpoint: mean survival time, dose: 13.33 mg/kg/injection, schedule: Q01DX001 (ip), vehicle: water 104 % of control | endpoint: mean survival time, dose: 18.0 mg/kg/injection, schedule: Q01DX001 (ip), vehicle: saline 121 % of control | endpoint: mean survival time, dose: 22.23 mg/kg/injection, schedule: Q01DX001 (ip), vehicle: water 119 % of control | endpoint: mean survival time, dose: 40.0 mg/kg/injection, schedule: Q01DX001 (ip), vehicle: water 100 % of control | endpoint: mean survival time, dose: 20.0 micrograms/kg/injection, schedule: Q01DX005 (ip), vehicle: saline 100 % of control | endpoint: mean survival time, dose: 40.0 micrograms/kg/injection, schedule: Q01DX005 (ip), vehicle: saline 117 % of control | endpoint: median survival time, dose: 2.16 mg/kg/injection, schedule: Q04DX003 (ip), vehicle: saline 115 % of control | endpoint: median survival time, dose: 3.6 mg/kg/injection, schedule: Q04DX003 (ip), vehicle: saline 113 % of control | endpoint: median survival time, dose: 4.8 mg/kg/injection, schedule: Q01DX001 (ip), vehicle: saline 103 % of control | endpoint: median survival time, dose: 6.0 mg/kg/injection, schedule: Q04DX003 (ip), vehicle: saline 115 % of control | endpoint: median survival time, dose: 8.0 mg/kg/injection, schedule: Q01DX009 (ip), vehicle: saline 104 % of control | endpoint: median survival time, dose: 8.4 mg/kg/injection, schedule: Q04DX003 (ip), vehicle: water 103 % of control | endpoint: median survival time, dose: 14.0 mg/kg/injection, schedule: Q04DX003 (ip), vehicle: water 78 % of control | endpoint: median survival time, dose: 16.0 mg/kg/injection, schedule: Q01DX001 (ip), vehicle: water 76 % of control | endpoint: median survival time, dose: 20.0 mg/kg/injection, schedule: Q01DX001 (ip), vehicle: saline 71 % of control | endpoint: median survival time, dose: 26.7 mg/kg/injection, schedule: Q01DX001 (ip), vehicle: saline 99 % of control | endpoint: median survival time, dose: 32.0 mg/kg/injection, schedule: Q01DX001 (iv), vehicle: water 65 % of control | endpoint: median survival time, dose: 40.0 mg/kg/injection, schedule: Q01DX001 (ip), vehicle: saline 53 % of control
121 % of control and 263 % of control: endpoint: mean survival time, dose: 20.0 mg/kg/injection, schedule: Q01DX001 (ip), vehicle: water
active: endpoint: mean survival time, dose: 0.72 mg/kg/injection, schedule: Q01DX009 (ip), vehicle: saline 173 % of control | endpoint: mean survival time, dose: 1.0 mg/kg/injection, schedule: Q01DX005 (ip), vehicle: water 174 % of control | endpoint: mean survival time, dose: 1.2 mg/kg/injection, schedule: Q01DX009 (ip), vehicle: saline 204 % of control | endpoint: mean survival time, dose: 1.68 mg/kg/injection, schedule: Q01DX001 (ip), vehicle: water 159 % of control | endpoint: mean survival time, dose: 1.68 mg/kg/injection, schedule: Q01DX009 (ip), vehicle: water 160 % of control | endpoint: mean survival time, dose: 2.5 mg/kg/injection, schedule: Q04DX003 (ip), vehicle: water 187 % of control | endpoint: mean survival time, dose: 2.8 mg/kg/injection, schedule: Q01DX001 (ip), vehicle: water 155 % of control | endpoint: mean survival time, dose: 2.8 mg/kg/injection, schedule: Q01DX009 (ip), vehicle: water 153 % of control | endpoint: mean survival time, dose: 4.0 mg/kg/injection, schedule: Q01DX001 (ip), vehicle: saline 193 % of control | endpoint: mean survival time, dose: 4.67 mg/kg/injection, schedule: Q01DX001 (ip), vehicle: water 166 % of control | endpoint: mean survival time, dose: 5.0 mg/kg/injection, schedule: Q01DX001 (ip), vehicle: saline 150 % of control and 171 % of control | endpoint: mean survival time, dose: 5.0 mg/kg/injection, schedule: Q01DX001 (ip), vehicle: water 151 % of control and 178 % of control | endpoint: mean survival time, dose: 5.0 mg/kg/injection, schedule: Q04DX003 (ip), vehicle: water 166 % of control | endpoint: mean survival time, dose: 5.4 mg/kg/injection, schedule: Q01DX001 (ip), vehicle: saline 151 % of control and 260 % of control | endpoint: mean survival time, dose: 6.6 mg/kg/injection, schedule: Q01DX001 (ip), vehicle: saline 193 % of control | endpoint: mean survival time, dose: 7.78 mg/kg/injection, schedule: Q01DX001 (ip), vehicle: water 153 % of control | endpoint: mean survival time, dose: 8.0 mg/kg/injection, schedule: Q01DX001 (ip), vehicle: saline 208 % of control | endpoint: mean survival time, dose: 8.0 mg/kg/injection, schedule: Q04DX003 (ip), vehicle: saline 163 % of control | endpoint: mean survival time, dose: 10.0 mg/kg/injection, schedule: Q01DX001 (ip), vehicle: water 169 % of control and 176 % of control | endpoint: mean survival time, dose: 12.96 mg/kg/injection, schedule: Q01DX001 (ip), vehicle: water 161 % of control | endpoint: mean survival time, dose: 15.0 mg/kg/injection, schedule: Q01DX001 (ip), vehicle: saline 196 % of control and 201 % of control | endpoint: mean survival time, dose: 20.0 mg/kg/injection, schedule: Q01DX001 (ip), vehicle: saline 225 % of control | endpoint: median survival time, dose: 0.5 mg/kg/injection, schedule: Q01DX009 (ip), vehicle: saline 170 % of control | endpoint: median survival time, dose: 1.0 mg/kg/injection, schedule: Q01DX005 (ip), vehicle: water 150 % of control | endpoint: median survival time, dose: 2.0 mg/kg/injection, schedule: Q01DX005 (ip), vehicle: water 162 % of control | endpoint: median survival time, dose: 2.0 mg/kg/injection, schedule: Q04DX003 (ip), vehicle: water 163 % of control | endpoint: median survival time, dose: 3.6 mg/kg/injection, schedule: Q01DX001 (ip), vehicle: saline 151 % of control | endpoint: median survival time, dose: 4.0 mg/kg/injection, schedule: Q04DX003 (ip), vehicle: saline 157 % of control | endpoint: median survival time, dose: 4.0 mg/kg/injection, schedule: Q04DX003 (ip), vehicle: water 339 % of control | endpoint: median survival time, dose: 5.0 mg/kg/injection, schedule: Q01DX001 (ip), vehicle: saline 150 % of control and 155 % of control | endpoint: median survival time, dose: 6.0 mg/kg/injection, schedule: Q01DX001 (ip), vehicle: saline 152 % of control | endpoint: median survival time, dose: 8.0 mg/kg/injection, schedule: Q04DX003 (ip), vehicle: saline 154 % of control | endpoint: median survival time, dose: 8.0 mg/kg/injection, schedule: Q04DX003 (ip), vehicle: water 182 % of control and 339 % of control | endpoint: median survival time, dose: 16.0 mg/kg/injection, schedule: Q01DX001 (iv), vehicle: water 193 % of control
